Laboratory results taken from patent publication US20120269797A1, “METHOD FOR INHIBITING THE MATURATION OF DENDRITIC CELLS” (priority 2009, published 2012).

What was measured:
[1] = system: murine DCs; assay: maturation of murine dendritic cells, surface molecules by FACS analysis; type: cell-based; conditions: different concentrations, Day 8 to Day 10, matured last 16 hours with LPS; FIG. 1
Experimental: Murine DCs were incubated with different concentrations of the proteasome inhibitor Velcade® from Day 8 to Day 10, and were matured during the last 16 hours, in the presence of LPS. In order to determine the phenotypic DC maturation, in other words the increase in the expression level of specific cell surface molecules, the cells were subsequently characterized using monoclonal antibodies and FACS analysis. […] However, only completely matured DCs are able to induce potent immune responses. The control (mock) remained untreated.

[2] = system: human DCs; conditions: two concentrations added Day 5, matured two days with maturation cocktail; FIG. 2
Experimental: Immature human DCs were mixed with two different concentrations of Velcade® on Day 5, and subsequently matured for another two days using the maturation cocktail. Subsequently, the expression of the surface molecules that are typical for the maturation of human DCs was analyzed. […] The control (mock) remained untreated.

[3] = system: murine DCs / allogeneic murine T cells; assay: DC-mediated T cell proliferation, allogeneic murine T cells with TNF-matured murine DCs; type: cell-based; conditions: 72 hours, three different concentrations; FIG. 3
Experimental: Allogeneic murine T cells were incubated with TNF-matured murine DCs for 72 hours, in the presence of three different concentrations of Velcade®.

[4] = system: human DCs; assay: DC-mediated T cell stimulation by MLR assay, human DCs; type: cell-based; conditions: DCs incubated during maturation; FIG. 4
Experimental: The T cell stimulatory capacity of mature DCs can be tested in vitro by means of the so-called “mixed leukocyte reaction” (MLR) assay. […] Human DCs were incubated with Velcade® during maturation and subsequently, the DC-mediated T cell stimulation was investigated by means of MLR assay.

[5] = system: murine (DC:T) cell co-cultures; assay: cytokine and chemokine production in murine DC/T cell co-cultures; type: cell-based; conditions: 72 hours, different concentrations; FIG. 5
Experimental: The production of INFy and MCP-1 was determined from cell culture top fractions of murine (DC:T) cell co-cultures. For this purpose, DCs were incubated with allogeneic T cells, in the presence of different concentrations of Velcade®, for 72 hours. […] The control (mock) remained untreated.

[6] = system: human DC/T cell co-cultures; assay: cytokine production in human DC/T cell co-cultures (CBA technology); type: cell-based
Experimental: During DC-mediated T cell stimulation, the production of cytokines (among them IFN, IL-2, IL-6, TNF) takes place, which can be detected in the culture top fraction. […] Immature human […] were incubated with Velcade®, matured for 48 hours, and subsequently cultivated together with allogeneic human T cells for another 72 hours. Subsequently, cell culture top fractions were taken and the release of pro-inflammatory cytokines was analyzed by means of CBA technology. […] The control (mock) remained untreated.

[7] = system: mature DCs; assay: mixed leukocyte reaction (MLR) assay, T cell stimulatory capacity of mature DCs; type: cell-based; conditions: see FIGS. 3 and 4
Description: The T cell stimulatory capacity of mature DCs can be tested in vitro by means of the so-called “mixed leukocyte reaction” (MLR) assay. […] This functional test therefore reflects the phenotypic effects of the PI treatment—namely the blockade of full maturation of the DCs—very well.

[8] = system: murine DCs generated ex vivo
Experimental: In order to test the effect of PIs also in vivo, Velcade® was applied to mice in vivo, then bone marrow was isolated and the typical bone marrow DCs were generated from this.
C57B1/6 mice were injected with 0.75 mg/kg Velcade® i.v. three times. The injection took place within five days, with an interval of one day, in each instance. An hour after the last injection, removal of the bone marrow from femur and tibia took place to generate the murine DCs. On Day 8 of cultivation, the cells were matured with LPS. On the subsequent day, the expression of the surface molecules was investigated by means of FACS analysis.

[9] = 0.75 mg/kg i.v. three times, FIG. 7b

CC(C)C[C@H](NC(=O)[C@H](Cc1ccccc1)NC(=O)c1cnccn1)B(O)O [Velcade®]
surface expression of CD25, CD40, CD80, CD86 and CD83 [1]: very clearly reduces
expression of CD80, CCR7, CD25, MHC I and CD83 [2]: clear reduction
DC-mediated T cell proliferation [3]: reduces the DC-mediated T cell proliferation in a manner that is dependent on dose
DC-mediated T cell stimulation (stimulatory capacity of DCs) [4]: clear reduction in their stimulatory capacity
expression of INFy and MCP-1 in cell culture top fractions [5]: clearly reduced expression
cytokine production (IFN, IL-2, IL-6, TNF) during DC-mediated T cell stimulation ([6]; culture top fraction, summary of FIGS. 5 and 6 (murine and human)): able to block this cytokine production, as a function of concentration
secretion of IL-2, IL-6, INFy and TNF ([6]; matured 48 hours, co-culture with allogeneic T cells 72 hours, FIG. 6): clearly reduced secretion
DC-mediated T cell stimulation [7]: able to block DC-mediated T cell stimulation
surface expression of CD25, CD40, CD80 and CD86 ([8]; 0.75 mg/kg i.v. three times, DCs matured with LPS on Day 8, FIG. 7a): reduction in the surface expression
expression of MHC Class II molecules [8, 9]: also reduced
percentage of MHC II highly expressing cells:MHC II interm. expressing cells [8, 9]: shifted in favor of the MCH II interm. expressing cells
population of the mature DCs (CD40, CD25, CD83 highly expressing) ([8]; applied in vivo to mice, TNF-stimulated and LPS-stimulated DCs, FIG. 7): reduces the population of the mature DCs
